Values joined by “and” are separate entries in the source; they are usually repeats but may differ in a detail not shown here. Identical values can stand only once.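 Results reflect a 48-hour exposure of cells in 96-well plates to compound at five concentrations. GI50 is the concentration that inhibits growth by half. TGI is the concentration that stops growth completely.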
Legend:
Assay in all cases: NCI anticancer screen, dose series, 48 h
A549 NSCLC = system: A549 NSCLC
ACHN renal = system: ACHN renal
COLO 205 colon = system: COLO 205 colon
HCT-116 colon = system: HCT-116 colon
HCT-15 colon = system: HCT-15 colon
NCI-H23 lung = system: NCI-H23 lung
RXF 393 renal = system: RXF 393 renal
SNB-19 CNS = system: SNB-19 CNS
RPMI-8226 leukemia = system: RPMI-8226 leukemia

`O=C1CC(c2ccc3c(c2)OCO3)Nc2cc3c(cc21)OCO3` (configuration not stated) gave a GI50 (A549 NSCLC) of 0.6 µM, a TGI (A549 NSCLC) of over 100 µM and a GI50 (ACHN renal) of 2.05 µM. For the same molecule, the TGI (ACHN renal) was over 100 µM, the GI50 (COLO 205 colon) was 0.282 µM and the TGI (COLO 205 colon) was 0.885 µM. For the same molecule, the GI50 (HCT-116 colon) was 1.27 µM, the TGI (HCT-116 colon) was over 100 µM and the GI50 (HCT-15 colon) was 0.432 µM. For the same molecule, the TGI (HCT-15 colon) was over 100 µM, the GI50 (NCI-H23 lung) was 0.479 µM and the TGI (NCI-H23 lung) was over 100 µM. The GI50 (RXF 393 renal) was 0.343 µM, the TGI (RXF 393 renal) was 4.44 µM and the GI50 (SNB-19 CNS) was 0.687 µM. The TGI (SNB-19 CNS) was over 100 µM.
`Cc1ccc(NC(=O)c2cc3ccccc3c(N=Nc3ccccc3O)c2O)c(C)c1` gave a TGI (A549 NSCLC) of 12.7 µM, a TGI (ACHN renal) of 16.4 µM and a TGI (COLO 205 colon) of 11.5 µM. The TGI (HCT-116 colon) was 2.2 µM, the TGI (HCT-15 colon) was 11.1 µM and the TGI (RPMI-8226 leukemia) was 11.1 µM. It also gave a TGI (RXF 393 renal) of 19.4 µM and a TGI (SNB-19 CNS) of 6.61 µM.
With `O=c1c2cccc3cccc(c4oc5c6cccc7cccc(c(=O)c5c14)c76)c32` the TGI (A549 NSCLC) was 25.4 µM, the TGI (ACHN renal) was 16.3 µM and the TGI (COLO 205 colon) was 15.6 µM. For the same molecule, the TGI (HCT-116 colon) was 17 µM, the TGI (HCT-15 colon) was 16.9 µM and the TGI (NCI-H23 lung) was 20.1 µM. For the same molecule, the TGI (RPMI-8226 leukemia) was 24.1 µM, the TGI (RXF 393 renal) was 16.6 µM and the TGI (SNB-19 CNS) was 18.6 µM.
`CC1=C(C(=O)Nc2cccc(Cl)c2)C(c2ccc([N+](=O)[O-])cc2)C(C(=O)Nc2cccc(Cl)c2)=C(C)N1` gave a TGI (A549 NSCLC) of over 100 µM, a TGI (ACHN renal) of 97.9 µM and a TGI (COLO 205 colon) of over 100 µM. It also gave a TGI (HCT-116 colon) of 71.9 µM, a TGI (HCT-15 colon) of 79.8 µM and a TGI (NCI-H23 lung) of 62.3 µM. The TGI (RPMI-8226 leukemia) was 83.4 µM, the TGI (RXF 393 renal) was 58.7 µM and the TGI (SNB-19 CNS) was over 100 µM.
Work on `Fc1cccc2cc3ccc4cccc5ccc(c12)c3c45` yielded a TGI (A549 NSCLC) of over 100 µM, a TGI (ACHN renal) of over 100 µM and a TGI (COLO 205 colon) of over 100 µM. It also gave a TGI (HCT-116 colon) of over 100 µM, a TGI (NCI-H23 lung) of over 100 µM and a TGI (RXF 393 renal) of over 100 µM. For the same molecule, the TGI (SNB-19 CNS) was over 100 µM.
`O=c1c(Sc2c(O)c3ccccc3c3ccccc3c2=O)c(O)c2ccccc2c2ccccc12` was tested, and the TGI (A549 NSCLC) was over 100 µM, the TGI (ACHN renal) was 78.5 µM and the TGI (COLO 205 colon) was over 100 µM. For the same molecule, the TGI (HCT-15 colon) was over 100 µM, the TGI (NCI-H23 lung) was 94.7 µM and the TGI (RPMI-8226 leukemia) was over 100 µM. The TGI (RXF 393 renal) was over 100 µM and the TGI (SNB-19 CNS) was over 100 µM.
`CC(=O)Nc1ccc(/C=N\N2C(=O)c3ccccc3C2=O)cc1` was tested, and the TGI (A549 NSCLC) was over 100 µM, the TGI (ACHN renal) was over 100 µM and the TGI (HCT-116 colon) was over 100 µM. For the same molecule, the TGI (HCT-15 colon) was over 100 µM, the TGI (NCI-H23 lung) was over 100 µM and the TGI (RPMI-8226 leukemia) was over 100 µM. It also gave a TGI (RXF 393 renal) of over 100 µM and a TGI (SNB-19 CNS) of over 100 µM.
`C=C1C(=O)OC2C1CC[C@H](C)C13OC(=O)CC1[C@@]23C` (some centres not stated) showed a TGI (A549 NSCLC) of over 100 µM, a TGI (ACHN renal) of over 100 µM and a TGI (COLO 205 colon) of over 100 µM. The TGI (HCT-116 colon) was over 100 µM, the TGI (NCI-H23 lung) was over 100 µM and the TGI (RPMI-8226 leukemia) was over 100 µM. It also gave a TGI (RXF 393 renal) of over 100 µM and a TGI (SNB-19 CNS) of over 100 µM.
In the case of `COc1ccc(-c2cnnn2-c2cc(OC)c3c(c2)OCO3)cc1`, the GI50 (A549 NSCLC) was 0.107 µM, the TGI (A549 NSCLC) was over 100 µM and the GI50 (ACHN renal) was 0.891 µM. The TGI (ACHN renal) was over 100 µM, the GI50 (COLO 205 colon) was 0.0578 µM and the TGI (COLO 205 colon) was 0.52 µM. The GI50 (HCT-116 colon) was 0.0596 µM, the TGI (HCT-116 colon) was over 42.3 µM and the GI50 (HCT-15 colon) was 0.0481 µM. For the same molecule, the TGI (HCT-15 colon) was over 100 µM, the GI50 (NCI-H23 lung) was 0.286 µM and the TGI (NCI-H23 lung) was over 100 µM. The GI50 (RPMI-8226 leukemia) was 0.256 µM, the TGI (RPMI-8226 leukemia) was over 100 µM and the TGI (SNB-19 CNS) was over 100 µM.
`CCOC(=O)C1=C(NNC(=O)Cc2ccccc2)CSC1=Nc1ccccc1` gave a TGI (A549 NSCLC) of over 100 µM, a TGI (ACHN renal) of over 100 µM and a TGI (COLO 205 colon) of over 100 µM. It also gave a TGI (HCT-116 colon) of over 100 µM, a TGI (HCT-15 colon) of over 100 µM and a TGI (NCI-H23 lung) of over 100 µM. It also gave a TGI (RXF 393 renal) of over 100 µM and a TGI (SNB-19 CNS) of over 100 µM.
With `N#C/C(=C1\NN=C(N)C(c2ccc(Cl)cc2)=C1O)c1ccc(Cl)cc1` the TGI (A549 NSCLC) was over 100 µM, the TGI (ACHN renal) was over 100 µM and the TGI (COLO 205 colon) was over 100 µM. It also gave a TGI (HCT-116 colon) of over 100 µM, a TGI (NCI-H23 lung) of over 100 µM and a TGI (RPMI-8226 leukemia) of over 100 µM. The TGI (RXF 393 renal) was over 100 µM and the TGI (SNB-19 CNS) was over 100 µM.
Molecule `O=c1[nH]nc2ccccc2c1Cl` has a TGI (A549 NSCLC) of 91.5 µM, a TGI (ACHN renal) of 30.8 µM and a TGI (COLO 205 colon) of 23.4 µM. The TGI (HCT-116 colon) was 29.9 µM, the TGI (HCT-15 colon) was 25.3 µM and the TGI (NCI-H23 lung) was 35.9 µM. It also gave a TGI (RPMI-8226 leukemia) of 8.87 µM and a TGI (SNB-19 CNS) of 30.5 µM.
With `COC(C(=O)C(O)C(C)O)C1Cc2cc3cc(OC4CC(OC(C)=O)C(OC5CC(O)C(OC)C(C)O5)C(C)O4)cc(O)c3c(O)c2C(=O)C1OC1CC(OC2CC(OC3CC(C)(O)C(OC(=O)C(C)C)C(C)O3)C(O)C(C)O2)C(O)C(C)O1` (configuration not stated) the GI50 (A549 NSCLC) was 0.0328 µM and 0.00452 µM, the TGI (A549 NSCLC) was 12.3 µM and 11.1 µM and the TGI (ACHN renal) was 0.198 µM. For the same molecule, the GI50 (HCT-15 colon) was 0.455 µM, the TGI (HCT-15 colon) was 22.4 µM and 34.5 µM and the TGI (RPMI-8226 leukemia) was 0.202 µM and 0.14 µM. For the same molecule, the GI50 (SNB-19 CNS) was 0.0897 µM and 0.01 µM and the TGI (SNB-19 CNS) was 53.9 µM and > 100 µM.
For `Nc1ccn(CCO)c(=O)n1`, the TGI (A549 NSCLC) was over 100 µM, the TGI (ACHN renal) was over 100 µM and the TGI (COLO 205 colon) was over 100 µM. For the same molecule, the TGI (HCT-116 colon) was over 100 µM, the TGI (HCT-15 colon) was over 100 µM and the TGI (RPMI-8226 leukemia) was over 100 µM. For the same molecule, the TGI (RXF 393 renal) was over 100 µM.
`CC1CC(c2cccc3c2OCO3)=Nc2ccccc2S1` (configuration not stated) showed a TGI (A549 NSCLC) of over 100 µM, a TGI (ACHN renal) of over 100 µM and a TGI (COLO 205 colon) of over 100 µM. It also gave a TGI (HCT-15 colon) of over 100 µM, a TGI (NCI-H23 lung) of over 100 µM and a TGI (RPMI-8226 leukemia) of over 100 µM. The TGI (RXF 393 renal) was over 100 µM and the TGI (SNB-19 CNS) was over 100 µM.
`CC1CC2C(=O)N(c3ccccc3)C(=O)C2c2c1c1ccccc1n2Cc1ccccc1` (configuration not stated) was tested, and the TGI (A549 NSCLC) was over 100 µM, the TGI (ACHN renal) was over 100 µM and the TGI (COLO 205 colon) was over 100 µM. It also gave a TGI (HCT-116 colon) of over 100 µM, a TGI (HCT-15 colon) of over 100 µM and a TGI (RPMI-8226 leukemia) of over 100 µM.
`Cc1nn(-c2ccccc2)c2c1CC(=O)Nc1ccccc1-2` was tested, and the GI50 (A549 NSCLC) was 0.764 µM, the TGI (A549 NSCLC) was over 100 µM and the GI50 (ACHN renal) was 0.84 µM. For the same molecule, the TGI (ACHN renal) was over 100 µM, the GI50 (COLO 205 colon) was 0.318 µM and the TGI (COLO 205 colon) was 4.84 µM and 1.99 µM. For the same molecule, the GI50 (HCT-116 colon) was 0.322 µM, the GI50 (HCT-15 colon) was 0.145 µM and the TGI (HCT-15 colon) was over 100 µM. It also gave a GI50 (NCI-H23 lung) of 0.357 µM, a TGI (NCI-H23 lung) of over 100 µM and a GI50 (RPMI-8226 leukemia) of 0.0826 µM. It also gave a TGI (RPMI-8226 leukemia) of 0.456 µM and a TGI (RXF 393 renal) of 5.85 µM.
For `OCC(O)C(OC1OC(CO)C(O)C(O)C1O)c1nn(-c2ccccc2)c2nc3cc(Cl)c(Cl)cc3cc12` (configuration not stated), the TGI (ACHN renal) was over 100 µM, the TGI (HCT-116 colon) was over 100 µM and the TGI (HCT-15 colon) was over 100 µM. The TGI (NCI-H23 lung) was over 100 µM, the TGI (RPMI-8226 leukemia) was over 100 µM and the TGI (RXF 393 renal) was over 100 µM. It also gave a TGI (SNB-19 CNS) of over 100 µM.

Source: PubChem BioAssay (NCI)
